Patent US20240208957A1, “TRIAZINE DERIVATIVE AS REVERSIBLE AND IRREVERSIBLE COVALENT INHIBITORS OF PI3K” (UNIVERSITÄT BASEL, priority 2021, published 2024)
Like-named read-outs stand apart in the source and are kept apart here.

What was measured:
[1] = tested on: pSer473 of PKB/Akt in SKOV3 cells; assay: In-Cell Western cellular PI3K signaling, pSer473 of PKB/Akt in SKOV3 cells; format: cell-based; details: Homo sapiens
Procedure: Protein phosphorylation was detected as follows: pSer473 of PKB/Akt with rabbit polyclonal antibody from Cell Signaling Technology (CST) (#4058) by In-Cell Western assays, where 1.2×10^4 SKOV3 cells/well in 96-well plates were plated (Cell Carrier, PerkinElmer) for 24 hours (37° C., 5% CO2), as described in Ref.^21.

[2] = background statement; cited from earlier work
[3] = Intrinsic reactivity of the inhibitors with βME measured with HPLC; format: physicochemical; details: 1 mM inhibitor + 600 mM βME, n = 3, mean
Source text: E˜I→EI • ii) off-target reactions with ubiquitous sulfhydryls (S) and other nucleophils present in physiologic environments such as cells and body fluids are driven by the intrinsic reactivity of the warhead that is defined by Kchem driving the conversion of S and I to form the sulfhydryl-adduct (SI) [table]

[4] = background statement; cited from earlier work; remark: listed apart in the source
[5] = target: p110α (PI3Kα) (Homo sapiens, UniProt P42336); assay: LanthaScreen determination of kinetic constants (kinact, Ki) for p110α; format: binding; details: for Ki: dissociation constant of the first reversible binding, mean of 3; for kinact: read-out: kinact PI3Kα;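 on all read-outs here: covalent inhibition constants for p110α come from LanthaScreen data, fitted globally by numerical integration in KinTek Global Kinetic Explorer software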
[6] = SK-OV-3, SKOV3 cells, mean of 2 or 3 independent measurements, read-out: IC50 pPKB (S473) SKOV3
[7] = SK-OV-3, read-out: IC50 pPKB (S473) SKOV3
[8] = mean of 3 independent measurements, global fitting with KinTek

Chain of p110α (PI3Kα) (P42336 whole entry): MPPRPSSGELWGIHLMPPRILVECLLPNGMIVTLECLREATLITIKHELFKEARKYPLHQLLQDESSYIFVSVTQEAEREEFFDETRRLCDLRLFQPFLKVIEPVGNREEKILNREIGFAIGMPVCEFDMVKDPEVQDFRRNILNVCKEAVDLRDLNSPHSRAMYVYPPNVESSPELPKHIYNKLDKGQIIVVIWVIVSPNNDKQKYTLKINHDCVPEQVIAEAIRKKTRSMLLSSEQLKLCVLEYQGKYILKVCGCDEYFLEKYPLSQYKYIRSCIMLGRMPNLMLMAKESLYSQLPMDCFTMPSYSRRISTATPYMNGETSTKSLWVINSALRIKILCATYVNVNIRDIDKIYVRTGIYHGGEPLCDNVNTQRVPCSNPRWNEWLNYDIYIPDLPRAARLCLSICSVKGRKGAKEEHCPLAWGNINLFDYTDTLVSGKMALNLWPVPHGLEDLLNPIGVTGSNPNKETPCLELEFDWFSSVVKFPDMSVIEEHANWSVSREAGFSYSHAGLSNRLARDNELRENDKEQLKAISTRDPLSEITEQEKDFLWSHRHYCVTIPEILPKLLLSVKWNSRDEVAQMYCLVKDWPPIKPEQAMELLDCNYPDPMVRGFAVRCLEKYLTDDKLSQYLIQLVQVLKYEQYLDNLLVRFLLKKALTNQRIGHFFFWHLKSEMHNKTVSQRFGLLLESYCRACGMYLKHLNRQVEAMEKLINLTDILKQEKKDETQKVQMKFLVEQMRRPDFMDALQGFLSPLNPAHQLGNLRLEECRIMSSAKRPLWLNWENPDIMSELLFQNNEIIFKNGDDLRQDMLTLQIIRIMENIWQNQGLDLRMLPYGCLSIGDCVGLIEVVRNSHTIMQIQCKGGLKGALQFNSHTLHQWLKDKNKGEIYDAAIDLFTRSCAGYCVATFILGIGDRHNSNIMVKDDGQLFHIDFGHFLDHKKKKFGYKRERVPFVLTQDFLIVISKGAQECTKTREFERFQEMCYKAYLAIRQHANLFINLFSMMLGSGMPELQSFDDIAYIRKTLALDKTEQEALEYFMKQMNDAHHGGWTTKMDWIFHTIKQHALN
Chain of p110α (PI3Kα) (P27986 whole entry partner): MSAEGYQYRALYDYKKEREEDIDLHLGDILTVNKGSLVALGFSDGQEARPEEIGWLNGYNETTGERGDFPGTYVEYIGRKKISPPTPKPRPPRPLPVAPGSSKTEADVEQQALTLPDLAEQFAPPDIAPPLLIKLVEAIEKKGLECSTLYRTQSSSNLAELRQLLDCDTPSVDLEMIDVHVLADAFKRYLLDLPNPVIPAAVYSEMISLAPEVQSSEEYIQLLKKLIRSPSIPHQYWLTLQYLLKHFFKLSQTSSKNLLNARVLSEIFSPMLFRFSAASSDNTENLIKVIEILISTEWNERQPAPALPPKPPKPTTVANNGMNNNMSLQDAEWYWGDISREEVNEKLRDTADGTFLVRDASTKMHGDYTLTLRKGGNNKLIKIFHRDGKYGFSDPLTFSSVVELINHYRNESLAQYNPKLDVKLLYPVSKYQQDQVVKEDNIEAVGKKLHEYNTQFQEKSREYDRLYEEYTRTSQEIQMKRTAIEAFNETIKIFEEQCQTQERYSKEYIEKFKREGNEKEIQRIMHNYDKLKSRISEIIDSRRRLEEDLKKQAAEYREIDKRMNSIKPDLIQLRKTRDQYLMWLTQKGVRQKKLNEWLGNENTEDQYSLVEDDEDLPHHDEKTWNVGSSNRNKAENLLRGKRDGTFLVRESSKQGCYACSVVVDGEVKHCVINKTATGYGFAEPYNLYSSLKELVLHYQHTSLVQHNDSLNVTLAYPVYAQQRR

| IC50 [1, 6] | Ki [5] | kinact/KI ([5]; PI3Kα, read-out: kinact/Ki) | kinact [5, 8] | Compound | aqueous solubility [2] | kchem [3] | metabolic stability [4] | IC50 [1, 7] | kinact/KI [5] | kinact [5] |
| --- | --- | --- | --- | --- | --- | --- | --- | --- | --- | --- |
| 0.0641 µM | 0.00607 µM | 531000 M⁻¹ s⁻¹ | 0.0032 s⁻¹ | C=CC(=O)N1CC[C@@H](C(=O)N(C)CC(=O)N2CCN(c3nc(-c4cnc(N)nc4C(F)F)nc(N4CCOCC4)n3)CC2)C1 [Compound 27, (R)-1-acryloyl-N-(2-(4-(4-(2-amino-4-(difluoromethyl)pyrimidin-5-yl)-6-morpholino-1,3,5-triazin-2-yl)piperazin-1-yl)-2-oxoethyl)-N-methylpyrrolidine-3-carboxamide] |  | 0.00049 M⁻¹ s⁻¹ |  |  |  |  |
| 0.301 µM | 0.00632 µM | 44500 M⁻¹ s⁻¹ | 0.000281 s⁻¹ | C=CC(=O)N1CCC[C@H]1C(=O)NCC(=O)N1CCN(c2nc(-c3cnc(N)nc3C(F)F)nc(N3CCOCC3)n2)CC1 [Compound 28, (S)-1-acryloyl-N-(2-(4-(4-(2-amino-4-(difluoromethyl)pyrimidin-5-yl)-6-morpholino-1,3,5-triazin-2-yl)piperazin-1-yl)-2-oxoethyl)pyrrolidine-2-carboxamide] |  | 0.00655 M⁻¹ s⁻¹ |  |  |  |  |
| 0.204 µM | 0.00674 µM | 40700 M⁻¹ s⁻¹ | 0.000275 s⁻¹ | C=CC(=O)N1CCC[C@@H]1C(=O)NCC(=O)N1CCN(c2nc(-c3cnc(N)nc3C(F)F)nc(N3CCOCC3)n2)CC1 [Compound 29, (R)-1-acryloyl-N-(2-(4-(4-(2-amino-4-(difluoromethyl)pyrimidin-5-yl)-6-morpholino-1,3,5-triazin-2-yl)piperazin-1-yl)-2-oxoethyl)pyrrolidine-2-carboxamide] |  | 0.0079 M⁻¹ s⁻¹ |  |  |  |  |
| 0.609 µM | 0.0134 µM | 126000 M⁻¹ s⁻¹ | 0.00169 s⁻¹ | C=CC(=O)N1CC(C(=O)NCCC(=O)N2CCN(c3nc(-c4cnc(N)nc4C(F)F)nc(N4CCOCC4)n3)CC2)C1 [Compound 35, 1-acryloyl-N-(3-(4-(4-(2-amino-4-(difluoromethyl)pyrimidin-5-yl)-6-morpholino-1,3,5-triazin-2-yl)piperazin-1-yl)-3-oxopropyl)azetidine-3-carboxamide] |  | 0.00662 M⁻¹ s⁻¹ |  |  |  |  |
| 0.023 µM | 0.00429 µM | 239000 M⁻¹ s⁻¹ | 0.00102 s⁻¹ | C=CC(=O)N1CCC(COCC(=O)N2CCN(c3nc(-c4cnc(N)nc4C(F)F)nc(N4CCOCC4)n3)CC2)CC1 [Compound 46, 1-(4-((2-(4-(4-(2-amino-4-(difluoromethyl)pyrimidin-5-yl)-6-morpholino-1,3,5-triazin-2-yl)piperazin-1-yl)-2-oxoethoxy)methyl)piperidin-1-yl)prop-2-en-1-one] |  | 0.00029 M⁻¹ s⁻¹ |  |  |  |  |

The remaining lines, values behind:

| Compound | IC50 [1, 6] | Ki [5] | kinact/KI ([5]; PI3Kα, read-out: kinact/Ki) | kinact [5, 8] | aqueous solubility [2] | kchem [3] | metabolic stability [4] | IC50 [1, 7] | kinact/KI [5] | kinact [5] |
| --- | --- | --- | --- | --- | --- | --- | --- | --- | --- | --- |
| CC(C)=CC(=O)CCC(=O)N1CCN(Cc2cc3nc(-c4cccc5[nH]ncc45)nc(N4CCOCC4)c3s2)CC1 [CNX-1351, 1-[4-[[2-(1H-indazol-4-yl)-4-(4-morpholinyl)thieno[3,2-d]pyrimidin-6-yl]methyl]-1-piperazinyl]-6-methyl-5-heptene-1,4-dione, reference compound] | 0.164 µM |  |  |  | low | 0.000222 M⁻¹ s⁻¹ | metabolic instability |  |  |  |
| C=CC(=O)N1CC[C@@H](C(=O)NCC(=O)N2CCN(c3nc(-c4cnc(N)nc4C(F)F)nc(N4CCOCC4)n3)CC2)C1 [Compound 25, (R)-1-acryloyl-N-(2-(4-(4-(2-amino-4-(difluoromethyl)pyrimidin-5-yl)-6-morpholino-1,3,5-triazin-2-yl)piperazin-1-yl)-2-oxoethyl)pyrrolidine-3-carboxamide] |  | 0.00536 µM |  |  |  | 0.00062 M⁻¹ s⁻¹ |  | 0.042 µM | 961000 M⁻¹ s⁻¹ | 0.00514 s⁻¹ |
| C=CC(=O)N1CC[C@H](C(=O)N(C)CC(=O)N2CCN(c3nc(-c4cnc(N)nc4C(F)F)nc(N4CCOCC4)n3)CC2)C1 [Compound 26, (S)-1-acryloyl-N-(2-(4-(4-(2-amino-4-(difluoromethyl)pyrimidin-5-yl)-6-morpholino-1,3,5-triazin-2-yl)piperazin-1-yl)-2-oxoethyl)-N-methylpyrrolidine-3-carboxamide] | 0.227 µM | 0.00528 µM | 150000 M⁻¹ s⁻¹ | 0.000789 s⁻¹ |  | 0.0005 M⁻¹ s⁻¹ |  |  |  |  |
| C=CC(=O)N1CC(C(=O)N(C)CC(=O)N2CCN(c3nc(-c4cnc(N)nc4C(F)F)nc(N4CCOCC4)n3)CC2)C1 [Compound 33, 1-acryloyl-N-(2-(4-(4-(2-amino-4-(difluoromethyl)pyrimidin-5-yl)-6-morpholino-1,3,5-triazin-2-yl)piperazin-1-yl)-2-oxoethyl)-N-methylazetidine-3-carboxamide] |  | 0.00643 µM |  |  |  | 0.00581 M⁻¹ s⁻¹ |  | 0.055 µM | 1.17e+06 M⁻¹ s⁻¹ | 0.00757 s⁻¹ |
| C=CC(=O)N1CCC(CCCC(=O)N2CCN(c3nc(-c4cnc(N)nc4C(F)F)nc(N4CCOCC4)n3)CC2)CC1 [Compound 47, 4-(1-acryloylpiperidin-4-yl)-1-(4-(4-(2-amino-4-(difluoromethyl)pyrimidin-5-yl)-6-morpholino-1,3,5-triazin-2-yl)piperazin-1-yl)butan-1-one] | 0.024 µM | 0.00715 µM |  |  |  | 0.000225 M⁻¹ s⁻¹ |  |  | 70300 M⁻¹ s⁻¹ | 0.000504 s⁻¹ |
